Test results taken from patent US20240251802A1, “USE OF SATIVENE, AND RECOMBINANT BIOCONTROL FUNGUS AND MUSCARDINE CADAVER AND USE THEREOF” (priority 2022, published 2024).
Entries after “also recorded” stand apart in the source; their conditions may differ.

Key:
Type in all cases: in vivo
Drosophila larvae = assay: Two-way choice method, attraction of Drosophila larvae; conditions: FIG. 2A/2B; for concentration dependence of attraction on Drosophila larvae: content gradients 10^−5 g to 10^−11 g
Procedure: Two-way choice method was used to detect the attraction of Galleria mellonella muscardine cadavers to Drosophila healthy larvae, with the device shown in FIG. 1A. New freezing-killed Galleria mellonella larvae were kept at a room temperature for 20 min(control) and one of the resulting Galleria mellonella muscardine cadaver was placed on both sides of a 9 cm petri dish (containing 2% water agar), and then 20 healthy 3-instar Canton-S Drosophila larvae were placed in the middle part of the petri dish. After 10 min, photographing was conducted to record the selection of Drosophila larvae, and a Response index was calculated [the Response index=(the number of Drosophila larvae selecting Galleria mellonella muscardine cadaver−the number of Drosophila larvae selecting control Galleria mellonella larvae)/the total number of Drosophila larvae (20)]. The experiment was repeated 6 times.
(§1) The muscardine cadaver was replaced by circular filter paper with a 5 mm diameter (containing 10 μl of different concentrations solutions of longifolene or sativene), and a control was a filter paper containing 10 μl of n-hexane solvent. Similarly, the method for detecting the attraction of muscardine cadavers to Galleria mellonella larvae and mosquitoes adults was also used to analyze the attraction of longifolene and sativene to these two kinds of insects. […]
(§2) According to the above device, the attraction of transgenic strain Mr-Tps and WT strain grown on PDA and on fermentation medium to mosquitoes was compared. The mycelia of transgenic strain Mr-Tps and WT strain grown on PDA and on fermentation medium for 14 d and with a fresh weight of 0.3 g were placed on both sides of the device, respectively, and a preference percentage was calculated after a period of treatment, where the preference percentage=the number of insects selecting mycelia of transgenic strain and WT strain/the total number of insects.

[1] = system: Galleria mellonella larvae; assay: Improved Two-way choice method, attraction of Galleria mellonella larvae; conditions: cotton balls with 100 μl solution vs n-hexane control, FIG. 3
Source text: An improved Two-way choice method was used to detect the attraction of Galleria mellonella muscardine cadavers to Galleria mellonella healthy larvae, with the device shown in FIG. 1B. Three freeze-killed Galleria mellonella larvae (control) and three the resulting Galleria mellonella muscardine cadavers were placed in 9 cm petri dishes, and the petri dishes were placed diagonally in the device; 40 healthy Galleria mellonella larvae were released at the center point of the device, and placed at room temperature in dark. The selection of healthy Galleria mellonella larvae was recorded after 1 h. A Response index was calculated [the Response index=the number of Galleria mellonella larvae selecting Galleria mellonella muscardine cadavers−the number of Galleria mellonella larvae selecting freeze-killed Galleria mellonella larvae)/the total number of Galleria mellonella larvae]. The experiment was repeated 6 times.
as §1

Aedes albopictus adults = assay: Two-way choice method, attraction of adult mosquitoes; conditions: for content with the strongest attraction on mosquitoes: content gradients 10^−5 g to 10^−9 g on cotton balls vs n-hexane control, FIG. 2C/2D
Procedure: The detection on attraction of muscardine cadavers to mosquito (Aedes albopictus) adults was conducted according to a relevant literature (Robinson Ailic, Busula Annette O, Voets Mirjam A, Beshir Khalid B, Caulfield John C. Powers Stephen J, Verhulst Niels O, Winskill Peter, Muwanguzi Julian, Birkett Michael A, Smallegange Renate C, Masiga Daniel K, Mukabana W Richard, Sauerwein Robert W, Sutherland Colin J, Bousema Teun, Pickett John A, Takken Willem, Logan James G, de Boer Jetske G. Plasmodium-associated changes in human odor attract mosquitoes. Proc Natl Acad Sci USA 2018; 115: 4215), and the device used was shown in FIG. 1D. One of freeze-killed Galleria mellonella larvae (control) and one of the resulting Galleria mellonella muscardine cadaver were placed in a 3.5 cm ampoule, and placed in cylinders on both sides of the device. 10 female mosquitoes without blood meal 3 d to 5 d after eclosion were placed in the middle of a tube 1. Openings at both ends of the tube 1 were covered with gauze, and the tube was placed in a refrigerator at 4° C. for 3 min to reduce mosquito activities. Then the tube 1 was connected to tubes 2 and 3. The whole device was placed in a dark incubator at 26° C., and the selection of mosquitoes was recorded after 10 h. A Response index was calculated [the Response index=the number of mosquitoes selecting Galleria mellonella muscardine cadavers−the number of mosquitoes selecting freeze-killed Galleria mellonella larvae)/the total number of mosquitoes].
as §1, with “insects. In the Galleria mellonella attractive device, the muscardine cadaver was replaced by cotton balls with about 2 cm diameter (containing 100 μl different concentrations solutions of longifolene or sativene), and a control was cotton balls containing 100 μl of n-hexane solvent.” for “insects.”
as §2

SMILES	concentration dependence of attraction on Drosophila larvae (Drosophila larvae)	attraction of Galleria mellonella larvae [1]	response of mosquitoes at 10^−9 g (Aedes albopictus adults; 10^−9 g, FIG. 2C)	content with the strongest attraction on mosquitoes (Aedes albopictus adults)	lowest level to which Drosophila larvae respond (Drosophila larvae; content gradients 10^−5 g to 10^−11 g on filter paper vs n-hexane control)	concentration dependence of attraction on mosquitoes (Aedes albopictus adults; content gradients 10^−5 g to 10^−9 g, FIG. 2D)
C=C1[C@H]2CC[C@@H]3[C@H]2C(C)(C)CCC[C@]13C [longifolene]	a higher concentration of the longifolene and sativene had a stronger attraction	could also attract	little response	10^−6 g	–	–
C=C1C2CCC3C2C(C(C)C)CCC13C (stereo not drawn) [sativene]	a higher concentration of the sativene has a stronger attracting effect; also recorded: a higher concentration of the longifolene and sativene had a stronger attraction	has insect attracting properties; also recorded: could also attract	–	10^−5 g	≤ 10^−11 g	a higher concentration of the sativene has a stronger attracting effect; also recorded: a higher concentration of the sativene had a stronger attraction
